Assay results reported in patent US6780976B2, “Enone reductases, methods for producing same, and methods for selectively reducing a carbon-carbon double bond of an alpha,beta-unsaturated ketone using the reductases” (Daicel Chemical Industries, Ltd., priority 2001, dated 2004).

Assays:
enone reductase [1] = assay: Substrate specificity of purified enone reductase; type: biochemical, Kluyveromyces lactis; conditions: enzyme obtained in Example 1
Protocol: A reaction mixture containing 50 mM potassium phosphate buffer (pH 6.5), […], 20 mM methyl vinyl ketone, and the enzyme is reacted at 30° C., and the decrease in absorbance at 340 nm, which is associated with the decrease of the amount of NADPH, is measured. 1 U is defined as the amount of enzyme catalyzing a decrease of 1 μmol NADPH in one minute. Quantitative analysis of the polypeptide is conducted by pigment binding methods using the protein assay kit (Bio-Rad Laboratories Inc.).
The enzyme obtained in Example 1 was reacted with various enones, ketones, and aldehydes, and the dehydrogenation activity was assayed. The result was represented by a relative activity, taking the dehydrogenation activity of the enzyme on methyl vinyl ketone as 100, and the results are shown in Table 2.

enone reductase [2] = assay: Activity of bacterial cell extract of E. coli HB101 (pSE-KLR1) expressing recombinant enone reductase to various substrates; type: biochemical, Kluyveromyces lactis; conditions: for Relative activity: methyl vinyl ketone = 100
Protocol: (§1) A reaction mixture containing 50 mM potassium phosphate buffer (pH 6.5), 0.2 mM NADPH, 20 mM methyl vinyl ketone, and the enzyme is reacted at 30° C., and the decrease in absorbance at 340 nm, which is associated with the decrease of the amount of NADPH, is measured. 1 U is defined as the amount of enzyme catalyzing a decrease of 1 μmol NADPH in one minute. Quantitative analysis of the polypeptide is conducted by pigment binding methods using the protein assay kit (Bio-Rad Laboratories Inc.).
E. coli HB101 strain, transformed with plasmid pSE-KLR1 expressing the enone reductase, was cultured overnight in liquid LB medium containing ampicillin at 30° C. 0.1 mM IPTG was added to the culture, and then, was further cultured for 4 hours.
(§2) The bacterial cells were harvested by centrifugation, and then, were suspended in 50 mM potassium phosphate buffer (pH8.0) containing 0.02% 2-mercaptoethanol, 2mM PMSF, and 10% glycerin. The cells were treated in a closed-chamber sonicator UCD-200TM (Cosmo Bio) for 3 minutes to crush the cells. The bacterial cell lysate was centrifuged and the supernatant was recovered as bacterial cell extract. The extract was assayed for activities to various types of substrates. In addition, E. coli HB 101 strain without the plasmid was cultured overnight in LB culture medium. 0.1 mM IPTG was added to the culture, and then, was further cultured for 4 hours. The bacterial cells were crushed by the same method as above, and the extract was assayed for the activities to various types of substrates.

[3] = system: E. coli HB 101 strain without the plasmid; assay: Activity of bacterial cell extract of host only (E. coli HB101 without the plasmid) to various substrates; type: biochemical
Protocol: as §1, §2

[4] = Methyl vinyl ketone-reducing activity of the purified enzyme (specific activity, pH and temperature dependency); type: biochemical; conditions: after Phenyl-Superose, NADPH
Protocol: as §1
Specific activity of the purified enzyme was about 31.7 U/mg.
The methyl vinyl ketone-reducing activity of the enzyme obtained in Example 1 was tested, by altering the pH of the reaction with potassium phosphate buffer and Britton Robinson buffer. The optimal pH for the reaction was determined to be 6.5 to 7.0.
The methyl vinyl ketone-reducing activity of the enzyme obtained in Example 1 was assayed under standard reaction conditions, with the exception that only the temperatures were altered. The optimal temperature was 37 to 45° C.

[5] = Enone reductase activity of cell-free extracts of E. coli JM109 expressing the homologues YNN4, YL60, YCZ2; type: biochemical; conditions: E. coli JM109 with pSE-YNN4, pSE-YL60 or pSE-YCZ2; 0.1 mM IPTG, 4 hours
Protocol: as §1
E. coli JM109 strains, each containing pSE-YNN4, pSE-YL60 or pSE-YCZ2, were cultured in LB culture medium containing ampicillin. The induction of the enzyme was achieved by adding 0.1 mM IPTG and culturing for 4 hours. The bacterial cells were harvested by centrifugation. Respective bacterial cells were suspended in cell lysis buffer (50 mM KPB (pH 8.0), 1 mM EDTA, 0.02% 2-ME, 2 mM PMSF, and 10% glycerol); and the cells were lysed in a sonicator. The supernatant prepared by centrifugation was used as the cell-free extract.
Each of the cell-free extract was assayed for the enone reductase activity. […] Thus, it was verified that all of the three types of homologues of the enzyme of the present invention had the requisite enone reductase activity.

[6] = coenzyme NADPH, activity on methyl vinyl ketone taken as 100
[7] = coenzyme NADH, activity on methyl vinyl ketone (NADPH) taken as 100

`CC(=O)C(C)=O` [2,3-butanedione] showed a Relative activity (enone reductase [1]; [6]) of 1%.

Molecule `CCC(C)=O` [2-butanone] has a Relative activity (enone reductase [1]; [6]) of 0%.

With `CC1=CCCC1=O` [2-methyl-2-cyclopenten-1-one] the Relative activity (enone reductase [1]; [6]) was 0%.

Work on `CC1=CC(=O)CC1` [3-methyl-2-cyclopenten-1-one] yielded a Relative activity (enone reductase [1]; [6]) of 0%.

With `CC=C(C)C(C)=O` [3-methyl-3-pentene-2-one] the Specific activity (enone reductase [2]) was 2.52 U/mg, the Relative activity (enone reductase [2]) was 32.4% and the Relative activity (enone reductase [1]; [6]) was 48%. For the same molecule, the Specific activity [3] was 0.004 U/mg.

`CC=CC(C)=O` [3-pentene-2-one] gave a Specific activity (enone reductase [2]) of 1.23 U/mg, a Relative activity (enone reductase [2]) of 15.9% and a Relative activity (enone reductase [1]; [6]) of 16%. It also gave a Specific activity [3] of 0.015 U/mg.

`CC(=O)C=C(C)C` [4-methyl-3-pentene-2-one] gave a Relative activity (enone reductase [1]; [6]) of 1%.

For `CC(=O)c1ccccc1` [Acetophenone], the Relative activity (enone reductase [1]; [6]) was 0%.

Molecule `C/C=C/C(=O)O` [Crotonic acid] has a Relative activity (enone reductase [1]; [6]) of 0%.

`C=CC(=O)CC` [Ethyl vinyl ketone] gave a Specific activity (enone reductase [2]) of 41.8 U/mg, a Relative activity (enone reductase [1]; [7]) of 52% and a Relative activity (enone reductase [1]; [6]) of 537%. It also gave a Specific activity [3] of 0.073 U/mg.

In the case of `C=CC(C)=O` [Methyl vinyl ketone], the Specific activity (enone reductase [2]) is reported as 7.78 U/mg, the Relative activity (enone reductase [2]) is reported as 100% and the Relative activity (enone reductase [1]; [7]) is reported as 14%. For the same molecule, the Relative activity (enone reductase [1]; [6]) was 100% and the Specific activity [3] was 0.066 U/mg.

For `CC(=O)C=O` [Methylglyoxal], the Relative activity (enone reductase [1]; [6]) was 1%.

B1: enzyme obtained in Example 1: NADPH-dependent enone reductase purified from Kluyveromyces lactis IFO 1267; amino acid sequence SEQ ID NO:2 (protein)
chain: MSVPTTQKAVIIEGDKAVVKTDVSVPELKEGTALVKVEAVAGNPTDWKHIAYKIGPEGSILGCDIAGTVVKLGPNASTDLKVGDTGFGFVHGASQTDPKNGAFAEYARVYPPLFYKSNLTHSTADEISEGPVKNFESAASLPVSLTTAGVSLCHHLGSKMEWHPSTPQHTHPLLIWGGATAVGQQLIQVAKHINAYTKIVTVASKKHEKLLKSYGADDVFDYHDAGVIEQIKSKYPNLQHVIDAVGSEDSIPEAYKVTADSLPATLLEVVPMTIESIPEEIRKDNVKIDITLLYRASGQEILLGATRFPASPEYHEATVKFVKFINPHLNNGDIHHMNIKVFSNGLDDVPALTEGIKEGKNKNVKYVARL
In the case of B1, the “Specific activity of the purified enzyme” value [4] is reported as “about 31.7 U/mg”.

B2: YNN4: Saccharomyces cerevisiae enone reductase homologue, SEQ ID NO:4, expressed in E. coli from pSE-YNN4 (protein)
chain: MSASIPETMKAVVIENGKAVVKQDIPIPELEEGFVLIKTVAVAGNPTDWKHIDFKIGPQGALLGCDAAGQIVKLGPNVDAARFAIGDYIYGVIHGASVRFPSNGAFAEYSAISSETAYKPAREFRLCGKDKLPEGPVKSLEGAVSLPVSLTTAGMILTHSFGLDMTWKPSKAQRDQPILFWGGATAVGQMLIQLAKKLNGFSKIIVVASRKHEKLLKEYGADELFDYHDADVIEQIKKKYNNIPYLVDCVSNTETIQQVYKCAADDLDATVVQLTVLTEKDIKEEDRRQNVSIEGTLLYLIGGNDVPFGTFTLPADPEYKEAAIKFIKFINPKINDGEIHHIPVKVYKNGLDDIPQLLDDIKHGRNSGEKLVAVLK
With B2 the “Enone reductase activity of cell-free extract” value [5] was 0.268 U/mg protein.

B3: YL60: Saccharomyces cerevisiae enone reductase homologue, SEQ ID NO:6, expressed in E. coli from pSE-YL60 (protein)
chain: MAQVAIPETMKAVVIEDGKAVVKEGIPIPELEEGFVLIKTLAVAGNPTDWAHIDYKIGPQGSILGCDAAGQIVKLGPAVNPKDFSIGDYIYGFIHGSSVRFPSNGAFAEYSAISTVVAYKSPNELKFLGEDVLPAGPVRSLEGVATIPVSLTTAGLVLTYNLGLDLKWEPSTPQRKGPILLWGGATAVGQSLIQLANKLNGFTKIIVVASRKHEKLLKEYGADELFDYHDIDVVEQIKHKYNNISYLVDCVANQDTLQQVYKCAADKQDATIVELKNLTEENVKKENRRQNVTIDIIRLYSIGGHEVPFGNITLPADSEARKAAIKFIKFINPKINDGQIRHIPVRVYKNGLCDVPHILKDIKYGKNSGEKLVAVLN
In the case of B3, the “Enone reductase activity of cell-free extract” value [5] is reported as 0.198 U/mg protein.

B4: YCZ2: Saccharomyces cerevisiae enone reductase homologue, SEQ ID NO:8, expressed in E. coli from pSE-YCZ2 (protein)
chain: MKAVVIEDGKAVVKEGVPIPELEEGFVLIKTLAVAGNPTDWAHIDYKVGPQGSILGCDAAGQIVKLGPAVDPKDFSIGDYIYGFIHGSSVRFPSNGAFAEYSAISTVVAYKSPNELKFLGEDVLPAGPVRSLEGAATIPVSLTTAGLVLTYNLGLNLKWEPSTPQRNGPILLWGGATAVGQSLIQLANKLNGFTKIIVVASRKHEKLLKEYGADQLFDYHDIDVVEQIKHKYNNISYLVDCVANQNTLQQVYKCAADKQDATVVELTNLTEENVKKENRRQNVTIDRTRLYSIGGHEVPFGGITFPADPEARRAATEFVKFINPKISDGQIHHIPARVYKNGLYDVPRILEDIKIGKNSGEKLVAVLN
In the case of B4, the “Enone reductase activity of cell-free extract” value [5] is reported as 0.133 U/mg protein.
